From patent US20250186404A1, “METHODS OF USING A (THIAZOLYL)BENZENESULFONAMIDE DERIVATIVE” (Cyteir Therapeutics, Inc., priority 2023, published 2025)
Like-named read-outs stand apart in the source and are kept apart here.

Assays:
human MCT1 = target: T1, human MCT1 (Homo sapiens, UniProt P53985); test: MCT1 Transport Inhibition Assay (TPGA uptake, LC-MS/MS); type: cell-based
T1 construct: host or cells: MDCK-II (canine) cells, transient co-transfection
T1 sequence (P53985 1-500): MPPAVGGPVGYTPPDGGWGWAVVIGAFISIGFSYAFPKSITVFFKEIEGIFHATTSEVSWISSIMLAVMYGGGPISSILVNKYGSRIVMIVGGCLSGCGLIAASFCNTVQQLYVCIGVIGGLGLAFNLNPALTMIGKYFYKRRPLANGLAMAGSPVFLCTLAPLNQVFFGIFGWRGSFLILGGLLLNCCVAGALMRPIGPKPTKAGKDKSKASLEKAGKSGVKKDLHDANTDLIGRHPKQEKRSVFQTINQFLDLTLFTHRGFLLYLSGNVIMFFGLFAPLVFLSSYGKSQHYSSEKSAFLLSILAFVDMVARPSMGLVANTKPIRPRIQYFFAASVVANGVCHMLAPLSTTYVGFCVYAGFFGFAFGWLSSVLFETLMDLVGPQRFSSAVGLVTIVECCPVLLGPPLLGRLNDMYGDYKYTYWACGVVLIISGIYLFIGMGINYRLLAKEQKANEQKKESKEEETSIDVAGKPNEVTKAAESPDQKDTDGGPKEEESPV
T1 sequence (P35613 140-385 partner limits assumed): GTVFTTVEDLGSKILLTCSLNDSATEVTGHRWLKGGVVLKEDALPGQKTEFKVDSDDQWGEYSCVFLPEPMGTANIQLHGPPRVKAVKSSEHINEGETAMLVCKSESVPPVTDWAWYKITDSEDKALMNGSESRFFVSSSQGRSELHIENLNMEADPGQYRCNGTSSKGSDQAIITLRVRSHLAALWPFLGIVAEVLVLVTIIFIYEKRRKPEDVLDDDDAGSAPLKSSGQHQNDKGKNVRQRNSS
Description: Inhibition of MCT1 transport after treatment with compounds of the present invention was measured in MDCK-II cells that overexpress human MCT1 by quantifying the transport of 2-Thiophene-glycoxylic acid (TPGA) into cells using LC-MS/MS.
MDCK-II cells are seeded at 60,000 cells per well in growth medium (low-glucose DMEM+10% FBS) in 96-well trans-well membrane plates, and incubated overnight (37° C., 5% CO2). Cells were co-transfected with mammalian expression constructs coding for MCT1 and CD147 at a 2:1 ratio or an empty vector control (GFP) and then incubated for 48 h (37° C., 5% CO2). Cells were washed 3 times with HBSS and cells were preincubated with inhibitors or vehicle control at room temperature in HBSS for 30 min with orbital shaking (60 rpm). HBSS was aspirated from the wells and replaced with HBSS with 25 mM Bis-Tris pH5.5+inhibitor or vehicle control+500 μM TPGA and incubated for 1 min at room temperature with orbital shaking (60 rpm). Both the apical and basolateral side of the trans-well insert were washed 4 times with ice-cold PBS. Cells were lysed with 60 μL of cell extraction solution, and the amount of TPGA in each well was quantified in triplicate by LC-MS/MS. The MCT1-mediated uptake rate was calculated using the following equation: […]
Percent inhibition for each concentration of inhibitor tested was calculated using the following equation: […]
Curves were fit to the calculated percent inhibition for each inhibitor, and the IC50 representing the concentration of inhibitor at which MCT1 is inhibited by 50% was calculated from this curve.
Canine MDCKII cells expressing human MCT1 were treated with a titration of Compound 67A, and import of the MCT1 substrate, 2-TPGA was measured by LC-MS (FIG. 1).

Human MCT4 = target: T2, Human MCT4 (Homo sapiens, UniProt O15427); test: Inhibition of 3BP import (rescue of viability) in MCT4-overexpressing INS-1 cells; type: cell-based; details: INS-1 cells over-expressing human MCT4, rescue from LC100 3BP
T2 construct: expressed in transfected cells
T2 sequence (O15427 2-465 limits assumed): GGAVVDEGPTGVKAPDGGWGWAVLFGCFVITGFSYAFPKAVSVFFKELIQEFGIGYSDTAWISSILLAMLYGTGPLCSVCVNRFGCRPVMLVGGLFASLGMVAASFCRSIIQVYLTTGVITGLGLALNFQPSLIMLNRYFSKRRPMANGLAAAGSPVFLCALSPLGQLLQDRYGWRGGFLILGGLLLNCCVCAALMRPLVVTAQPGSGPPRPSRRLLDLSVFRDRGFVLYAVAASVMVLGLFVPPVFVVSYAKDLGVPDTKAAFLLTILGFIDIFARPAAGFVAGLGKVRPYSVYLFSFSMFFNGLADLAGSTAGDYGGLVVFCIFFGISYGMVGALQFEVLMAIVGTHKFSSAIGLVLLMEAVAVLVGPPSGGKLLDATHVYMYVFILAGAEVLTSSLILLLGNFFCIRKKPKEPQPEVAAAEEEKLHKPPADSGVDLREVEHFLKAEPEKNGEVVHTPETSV
T2 sequence (P26453 23-388 partner): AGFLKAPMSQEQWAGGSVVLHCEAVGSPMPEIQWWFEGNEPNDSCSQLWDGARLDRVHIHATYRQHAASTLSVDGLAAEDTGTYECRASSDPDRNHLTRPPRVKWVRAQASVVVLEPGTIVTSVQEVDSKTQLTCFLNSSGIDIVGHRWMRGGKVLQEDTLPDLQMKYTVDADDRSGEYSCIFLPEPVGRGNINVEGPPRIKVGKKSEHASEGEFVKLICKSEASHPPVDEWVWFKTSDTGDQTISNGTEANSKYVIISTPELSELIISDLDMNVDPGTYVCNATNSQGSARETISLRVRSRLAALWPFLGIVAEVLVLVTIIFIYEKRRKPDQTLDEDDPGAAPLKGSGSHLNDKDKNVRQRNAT
Description: Human MCT1-4 were stably expressed in INS-1 rat pancreatic islet B-cells, which are deficient in endogenous MCT expression. 3-Bromopyruvate (3BP), a highly reactive and cytotoxic monocarboxylate, can enter the INS-1 cells via the overexpressed MCT isoform, resulting in rapid cell death. However, prevention of 3BP transport into the cell by an MCT inhibitor can prevent 3BP-mediated cell death (FIG. 16).
INS-1 cells over-expressing an MCT paralog were treated with a titration of 3BP to determine the lowest concentration that results in 100% cell killing (LC100). The INS-1 cells were then pre-treated with a titration of Compound 67A before exposure to the LC100 concentration of 3BP specific for that MCT-over-expressing cell line, and rescue of cell viability was measured (FIG. 17).

[1] = MDCK-II cells overexpressing human MCT1, TPGA transport, read-out: BioIVT MCT1 Transporter IC50

Compound	IC50 (human MCT1; [1])	IC50 (Human MCT4)	IC50 (human MCT1; Canine MDCKII cells expressing human MCT1, LC-MS, read-out: inhibits 2-TPGA import, IC50)
AZD3965	150 to 1000 nM	> 33000 nM	–
O=C(Nc1ccccc1C(=O)O)c1cc(S(=O)(=O)c2ccccc2)ccc1Cl [BAY8002]	50 to 150 nM	> 33000 nM	–
CC(C)OC(=O)Nc1ccc(-c2cnc([C@H]3CC[C@H](NC(=O)OC(C)C)CC3)s2)c(S(=O)(=O)NC(C)(C)C)c1 [Compound 67A]	50 to 150 nM	1000 to 10000 nM	134 nM
